Results on 14 compounds are retold here after patent US10011586B2, “Heterocyclic compound, method for preparing the same, and pharmaceutical composition comprising the same” (Daewoong Pharmaceutical Co., Ltd., priority 2015, dated 2018).

Test [1] addresses T1, PRS enzyme (Homo sapiens, UniProt P07814).
T1 construct: the portion corresponding to PRS in cDNA of EPRS was subcloned; made in house
T1 sequence (P07814 1007-1512 limits assumed): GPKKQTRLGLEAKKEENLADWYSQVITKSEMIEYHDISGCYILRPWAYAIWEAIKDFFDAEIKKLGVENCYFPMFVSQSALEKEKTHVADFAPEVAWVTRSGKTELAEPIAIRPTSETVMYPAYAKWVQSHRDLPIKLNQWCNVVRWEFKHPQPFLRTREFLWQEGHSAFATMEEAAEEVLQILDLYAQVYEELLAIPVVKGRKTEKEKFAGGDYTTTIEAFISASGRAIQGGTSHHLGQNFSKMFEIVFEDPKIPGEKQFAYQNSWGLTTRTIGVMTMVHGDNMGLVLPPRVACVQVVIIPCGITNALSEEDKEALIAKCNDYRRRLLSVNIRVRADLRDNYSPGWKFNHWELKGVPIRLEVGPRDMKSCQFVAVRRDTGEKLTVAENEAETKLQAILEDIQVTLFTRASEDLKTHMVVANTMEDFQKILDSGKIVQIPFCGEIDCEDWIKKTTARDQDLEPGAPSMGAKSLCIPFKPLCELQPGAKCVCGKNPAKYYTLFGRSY
Description: PRS enzyme activity inhibition experiment. In kind it is biochemical. On the procedure: Specifically, the portion corresponding to PRS in cDNA of EPRS was subcloned, and the obtained high-purity PRS protein was purified and used in the experiment. The compounds (1 μM) prepared in Examples were added into the reaction buffer (20 mM KPO4 (pH 7.4), 6 mM MgAc, 5 mM ATP, […] tRNA, 0.5 mM DTT, […][^3H]proline (1 mCi/mL)) and allowed to react at 37° C. for 5 to 10 minutes. The reaction was terminated with 3M paper that was in advance dried by addition of 5% TCA. The radioactivity was measured using a liquid scintillation counter.
% Inhibition and IC50 values of the respective compounds were calculated and analyzed using Microsoft Excel or Sigma Plot 8.0. In Table 1, the results are divided into A, B and C according to the range of IC50.

Test [2] deals with NCI-H460 cells. The experiment in a line: Cancer cell growth inhibition experiment (MTT assay). In kind it is cell-based. To be noted: Homo sapiens, lung cancer cell line, compounds 48 hours, cell viability by MTT assay. On the procedure: NCl-H460 cells, lung cancer cell lines, were cultured in 5% CO2, 37° C. incubator using a flask for 75 cm^2 tissue culture. 96-well plates were used for the evaluation. These were prepared by differently applying at concentrations in the range of 6,000 to 12,000 cells/well according to the growth rate of the cell lines. The medium containing 5% FBS were dispensed in 200 μL/well and used. The medium were cultured for 24 hours. After confirming the cell status and dispensing form of a 96-well plate under a microscope, they were used for subsequent experiments. The compounds were evaluated at concentrations of 100, 30, 10, 3, 1, 0.3, 0.03, 0.01 μM. After removing the existing medium, the compounds with various concentrations were treated in an amount of 200 μL/well. The compounds-treated plates were further cultured for 48 hours, and the cell viabilities were measured by MTT assay to calculate IC50 values.
% Inhibition and IC50 values of the respective compounds were calculated and analyzed using Sigma Plot 8.0. In Table 2, the results are divided into A, B and C according to the range of IC50. The case where the derived IC50 is 3 μM or less is represented by “A”, the case where the IC50 is 3 to 10 μM is represented by “B”, and the case where the IC50 is 10 μM or higher is represented by “C”.
A general note: Tetrazolium assays rely on reduction of a dye to a coloured formazan, in cell work by metabolically active cells.

Where [3] appears, read: purified PRS protein subcloned from EPRS cDNA, [3H]proline, 37° C., 5 to 10 minutes, liquid scintillation counter, read-out: PRS IC50.

Molecules are shown by their SMILES. Where two headings read alike, the source gives them in different places. Where only a bound is given, the exact number is not on record here.

As to `O=C(C[C@H]1NCCC[C@@H]1O)Cn1cnc2ccc(-c3cccc(C(F)(F)F)c3)nc21` [Example 47, 1-((2R,3S)-3-hydroxypiperidin-2-yl)-3-(5-(3-(trifluoromethyl)phenyl)-3H-imidazo[4,5-b]pyridin-3-yl)propan-2-one], the IC50 in test [1] (setting [3]) was < 100 nM; in test [2], ≤ 3000 nM.
The like results for `O=C(C[C@H]1NCCC[C@@H]1O)Cn1cnc2cccc(-c3ccccc3)c21` [Example 48, 1-((2R,3S)-3-hydroxypiperidin-2-yl)-3-(7-phenyl-1H-benzo[d]imidazol-1-yl)propan-2-one] were, in that order, 100 to 500 nM and ≥ 10000 nM.
`O=C(C[C@H]1NCCC[C@@H]1O)Cn1cnc2cccc(-c3cccc(F)c3)c21` [Example 49, 1-(7-(3-fluorophenyl)-1H-benzo[d]imidazol-1-yl)-3-((2R,3S)-3-hydroxypiperidin-2-yl)propan-2-one]: the half-inhibitory concentration (IC50) in test [1] (setting [3]) was < 100 nM; in test [2], ≤ 3000 nM.
For the compound `O=C(C[C@H]1NCCC[C@@H]1O)Cn1cnc2cccc(-c3cccc(Cl)c3)c21` [Example 50, 1-(7-(3-chlorophenyl)-1H-benzo[d]imidazol-1-yl)-3-((2R,3S)-3-hydroxypiperidin-2-yl)propan-2-one], the results for the IC50 in test [1] (setting [3]) and in test [2] were 100 to 500 nM and ≥ 10000 nM, respectively.
Consider `O=C(C[C@H]1NCCC[C@@H]1O)Cn1cnc2cccc(-c3ccc(Cl)cc3)c21` [Example 51, 1-(7-(4-chlorophenyl)-1H-benzo[d]imidazol-1-yl)-3-((2R,3S)-3-hydroxypiperidin-2-yl)propan-2-one], for which the IC50 was 100 to 500 nM in test [1] and ≥ 10000 nM in test [2].
For the compound `O=C(C[C@H]1NCCC[C@@H]1O)Cn1cnc2cccc(-c3ccc(C(F)(F)F)cc3)c21` [Example 54, 1-((2R,3S)-3-hydroxypiperidin-2-yl)-3-(7-(4-(trifluoromethyl)phenyl)-1H-benzo[d]imidazol-1-yl)propan-2-one], the IC50 in test [1] (setting [3]) is 100 to 500 nM; in test [2], ≥ 10000 nM.
The like results for `O=C(C[C@H]1NCCC[C@@H]1O)Cn1c(CO)nc2cc(-c3cccc(F)c3)ccc21` [Example 56, 1-(5-(3-fluorophenyl)-2-(hydroxymethyl)-1H-benzo[d]imidazol-1-yl)-3-((2R,3S)-3-hydroxypiperidin-2-yl)propan-2-one] were, in that order, > 500 nM and ≥ 10000 nM.
Turning to `O=C(C[C@H]1NCCC[C@@H]1O)Cn1c(CO)nc2ccc(-c3ccccc3)cc21` [Example 57, 1-(2-(hydroxymethyl)-6-phenyl-1H-benzo[d]imidazol-1-yl)-3-((2R,3S)-3-hydroxypiperidin-2-yl)propan-2-one], the IC50 in test [1] (setting [3]) was < 100 nM; in test [2], 3000 to 10000 nM.
Regarding `O=C(C[C@H]1NCCC[C@@H]1O)Cn1c(CO)nc2ccc(-c3ccccc3F)cc21` [Example 58, 1-(6-(2-fluorophenyl)-2-(hydroxymethyl)-1H-benzo[d]imidazol-1-yl)-3-((2R,3S)-3-hydroxypiperidin-2-yl)propan-2-one], the 50% inhibitory concentration (IC50) in test [1] (setting [3]) is < 100 nM; in test [2], 3000 to 10000 nM.
Regarding `O=C(C[C@H]1NCCC[C@@H]1O)Cn1c(CO)nc2ccc(-c3cccc(F)c3)cc21` [Example 59, 1-(6-(3-fluorophenyl)-2-(hydroxymethyl)-1H-benzo[d]imidazol-1-yl)-3-((2R,3S)-3-hydroxypiperidin-2-yl)propan-2-one], the IC50 in test [1] (setting [3]) was < 100 nM; in test [2], ≤ 3000 nM.
Regarding `O=C(C[C@H]1NCCC[C@@H]1O)Cn1c(CO)nc2ccc(-c3ccc(F)cc3)cc21` [Example 60, 1-(6-(4-fluorophenyl)-2-(hydroxymethyl)-1H-benzo[d]imidazol-1-yl)-3-((2R,3S)-3-hydroxypiperidin-2-yl)propan-2-one], the half-maximal inhibitory concentration (IC50) is < 100 nM in test [1] (setting [3]) and ≥ 10000 nM in test [2].
Turning to `O=C(C[C@H]1NCCC[C@@H]1O)Cn1c(CO)nc2ccc(-c3cccc(C(F)(F)F)c3)cc21` [Example 61, 1-(2-(hydroxymethyl)-6-(3-(trifluoromethyl)phenyl)-1H-benzo[d]imidazol-1-yl)-3-((2R,3S)-3-hydroxypiperidin-2-yl)propan-2-one], the half-maximal inhibitory concentration (IC50) in test [1] (setting [3]) is 100 to 500 nM; in test [2] it was ≤ 3000 nM.
The corresponding values for `OC(C[C@H]1NCCC[C@@H]1O)Cn1cnc2ccc(-c3cccc(Cl)c3)nc21` (stereo partly drawn) [Example 62, (2R,3S)-2-(3-(5-(3-chlorophenyl)-3H-imidazo[4,5-b]pyridin-3-yl)-2-hydroxypropyl)piperidin-3-ol] are < 100 nM and ≥ 10000 nM.
The corresponding values for `OC(C[C@H]1NCCC[C@@H]1O)Cn1cnc2ccc(-c3cccc(Cl)c3)cc21` (stereo partly drawn) [Example 63, (2R,3S)-2-(3-(6-(3-chlorophenyl)-1H-benzo[d]imidazol-1-yl)-2-hydroxypropyl)piperidin-3-ol] are 100 to 500 nM and ≥ 10000 nM.

As a reminder, the IC50 is the concentration that gives 50% inhibition.
